Source: patent US20090176841A1, “NOVEL 6-5 SYSTEM BICYCLIC HE[…] ITS PHAR[…]” (Sanwa Kagaku Kenkyusho Co., Ltd., priority 2006, published 2009)

Experiments:
[1] = target: T1, recombinant human TRβ (Homo sapiens, UniProt P10828); assay: biochemical; settings: TR[…] (IC50, nM), displacement of 125I-T3 (0.16 nM)
T1 sequence (P10828 244-461): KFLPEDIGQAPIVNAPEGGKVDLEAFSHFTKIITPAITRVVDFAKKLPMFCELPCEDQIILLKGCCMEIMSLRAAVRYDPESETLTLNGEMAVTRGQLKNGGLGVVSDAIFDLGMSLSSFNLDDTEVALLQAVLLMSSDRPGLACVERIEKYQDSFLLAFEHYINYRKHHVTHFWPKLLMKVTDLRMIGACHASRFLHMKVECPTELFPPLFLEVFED
Text: (§1) Thyroid Hormone Receptor Binding Test
(§2) (1) Preparation of Fused Protein Having Ligand Binding Region of Thyroid Hormone Receptor
(§3) Human TRα and human TRβ ligand binding domains were expressed in Escherichia coli as a fused protein (recombinant human TRα or recombinant human TRβ) having TRα and TRβ ligand binding domains at a C-terminus of His-Patch Thioredoxin using the His-Patch Thioredoxin fusing protein expressing system (Invitrogen).
(§4) A nucleotide sequence of a region corresponding to the fused protein was confirmed by DNA sequence analysis.
(§5) Escherichia coli by which the fused protein had been subjected to expression inducement were collected by a centrifugation method, and ground using ultrasound to prepare a ground cell liquid containing the fused protein. The ground cell liquid was centrifuged at 15000 rpm for about 30 minutes, and a solution containing the fused protein from the supernatant using a nickel chelating column was obtained. An NAP-10 column was replaced with a binding solution (20 mM, Tris-HCl, 0.15 M NaCl, 8% Glycerol, 0.1% BSA, 1 mM EDTA, 10 mM 2-melcaptethanol). The resulting binding solution containing the fused protein was frozen and stored at −70° C. or lower.
(§6) (2) Binding Affinity for Thyroid Hormone Receptor
(§7) This binding solution (60 μL) was added to all wells of a 96-well plate (MILLIPORE MultiScreen-HV, Cat. No. MANVN4550, Lot. No. F4SN86613). […] 80 μL of SephadexG25 was added to each well of MultiScreen-HV (MILLIPORE, Cat. No. MANVN4550, Lot. No. F4SN86613), the binding solution was added to sufficiently swell, and this was centrifuged at 600×g for 1 minute to prepare a column of SephadexG25. […] Again, 25 μL untreated binding solution was overlaid on the SephadexG25 column, and this was immediately centrifuged at 600×g for 1 minute. […] As an amount of recombinant human TRα or recombinant human TRβ used in the present test, an amount by which proper radioactivity is obtained in a range where an addition amount of the receptor and an amount of the complex in the above test system, was used.
(§8) This was divided by the total complex amount to calculate a binding rate as the following equation:
(§9) Binding rate=remaining complex amount/total complex amount

[2] = target: T2, recombinant human TRα (Homo sapiens, UniProt P10827); assay: biochemical; settings: TR[…] (IC50, nM), displacement of 125I-T3 (0.16 nM)
T2 sequence (P10827 190-410 isoform P10827-2): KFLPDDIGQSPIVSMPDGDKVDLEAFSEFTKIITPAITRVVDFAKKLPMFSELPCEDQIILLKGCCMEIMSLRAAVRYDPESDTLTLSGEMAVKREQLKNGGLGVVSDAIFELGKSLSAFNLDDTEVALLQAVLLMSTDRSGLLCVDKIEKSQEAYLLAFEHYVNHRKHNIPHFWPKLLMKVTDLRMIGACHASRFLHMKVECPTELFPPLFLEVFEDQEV
Text: as §1, §2, §3, §4, §5, §6, §7, §8, §9

Row | IC50 [1] [nM] | IC50 [2] [nM] | SMILES
1 | 9.4 | 170 | CCC(C)c1cc(Cn2c(C)cc3c(NC(=O)CC(=O)O)ccc(C)c32)ccc1O (centres unmarked) [Example 123]
2 | 8.7 | 66 | Cc1ccc(NC(=O)C(=O)O)c2cc(C)n(Cc3ccc(O)c(Cc4ccc(F)cc4)c3)c12 [Example 125]
3 | 320 | 1900 | CCOc1cc(Cn2c(C)cc3c(NC(=O)C(=O)O)ccc(C)c32)ccc1O [Example 126]
4 | 7.5 | 260 | Cc1ccc(NC(=O)CC(=O)O)c2cc(C)n(Cc3ccc(O)c(C(O)c4ccc(F)cc4)c3)c12 (centres unmarked) [Example 129, N-(1-{3-[(4-fluorophenyl)hydroxymethyl]-4-hydroxybenzyl}-2,7-dimethyl-1H-indol-4-yl)malonamic acid]
